Source: paper PMC8537386, “The Specificity and Broad Multitarget Properties of Ligands for the Free Fatty Acid Receptors FFA3/GPR41 and FFA2/GPR43 and the Related Hydroxycarboxylic Acid Receptor HCA2/GPR109A” (Pharmaceuticals, 2021)
Read-outs that look alike come from different tables or passages of the source.

Assays:
FFA3/GPR41 = biological target: T1, FFA3/GPR41 (Homo sapiens, UniProt O14843); assay: forskolin-stimulated cAMP accumulation assay, Flp-In-293 cells stably expressing FFA3/GPR41; type: cell-based; details: for inhibition at 50 µM / Emax: Flp-In-293; for inhibition at 50 µM: 50 µM compound, NA = not active up to 50 µM; for Emax / EC50: mean ± SD; for Emax: read-out: FFA3/GPR41 Emax, maximal inhibition of forskolin-stimulated cAMP (converted); for EC50: inhibition of forskolin-stimulated cAMP, absence of propionate, read-out: FFA3/GPR41 EC50; for activity towards FFA3/GPR41 (in words): cAMP assay
T1 construct: host or cells: Flp-In-293
T1 sequence (O14843 1-346): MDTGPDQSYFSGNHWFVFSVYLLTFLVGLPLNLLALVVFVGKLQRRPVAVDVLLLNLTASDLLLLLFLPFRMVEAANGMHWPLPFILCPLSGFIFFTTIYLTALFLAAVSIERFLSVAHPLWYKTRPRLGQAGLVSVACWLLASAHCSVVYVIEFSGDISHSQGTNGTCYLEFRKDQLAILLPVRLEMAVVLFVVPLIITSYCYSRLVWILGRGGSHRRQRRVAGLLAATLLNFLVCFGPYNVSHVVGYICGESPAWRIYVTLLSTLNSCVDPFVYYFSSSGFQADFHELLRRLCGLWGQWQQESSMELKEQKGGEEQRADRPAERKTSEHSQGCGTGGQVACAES
Protocol: (§1) All of our synthesized compounds were evaluated in forskolin-stimulated cAMP accumulation assay using Flp-In-293 cells stably expressing human FFA2/GPR43, FFA3/GPR41 or HCA2/GPR109A receptors (Table 1, Table 2 and Table 3; Figure 2).
(§2) Flp-In-293 cells (Invitrogen) were used for the generation of stable FFA3/GPR41 and FFA2/GRP43 cell lines using Flp-In System (Invitrogen). Flp-In-293 cells were cultured in Dulbecco’s modified Eagle medium (DMEM) supplemented with 10% fetal bovine serum (FBS), penicillin (100 U/mL), streptomycin (100 µg/mL), and zeocin (100 µg/mL). The cells were co-transfected with pOG44 (Invitrogen) and pcDNA5/FRT-FFA3 or pcDNA5/FRT-FFA2 using TurboFect (Thermo Fisher Scientific), and stable cell lines were generated according to the manufacturer’s protocol (Invitrogen). After transfection, the cells were cultured under selection pressure due to the presence of hygromycin B (100 µg/mL) in DMEM supplemented with 10% FBS, penicillin, and streptomycin.
(§3) For cAMP assay, the cells were distributed into a 384-well white microplate at a density of 12,000 cells per well and stimulated with the indicated compounds in the presence of 3 μM forskolin for 30 min. […] The cells and the compounds were diluted in 1X phosphate-buffered saline (PBS) supplemented with 0.5 mM of 3-isobutyl-1-methylxanthine. The intracellular cAMP levels were measured using a Lance cAMP kit according to the manufacturer’s instructions. The plates were read on a PerkinElmer Victor 3V multilabel plate reader. The cAMP was quantitated in each sample by comparison to a calibration curve of known cAMP quantities provided in the kit.

FFA2/GPR43 = biological target: T2, FFA2/GPR43 (Homo sapiens, UniProt O15552); assay: forskolin-stimulated cAMP accumulation assay, Flp-In-293 cells stably expressing FFA2/GPR43; type: cell-based; details: for inhibition at 50 µM / Emax: Flp-In-293; for inhibition at 50 µM: 50 µM compound, NA = not active up to 50 µM; for activity towards FFA2/GPR43 (in words): cAMP assay; for Emax / EC50: mean ± SD; for Emax: read-out: FFA2/GPR43 Emax, maximal inhibition of forskolin-stimulated cAMP (converted); for EC50: inhibition of forskolin-stimulated cAMP
T2 construct: host or cells: Flp-In-293
T2 sequence (O15552 1-330): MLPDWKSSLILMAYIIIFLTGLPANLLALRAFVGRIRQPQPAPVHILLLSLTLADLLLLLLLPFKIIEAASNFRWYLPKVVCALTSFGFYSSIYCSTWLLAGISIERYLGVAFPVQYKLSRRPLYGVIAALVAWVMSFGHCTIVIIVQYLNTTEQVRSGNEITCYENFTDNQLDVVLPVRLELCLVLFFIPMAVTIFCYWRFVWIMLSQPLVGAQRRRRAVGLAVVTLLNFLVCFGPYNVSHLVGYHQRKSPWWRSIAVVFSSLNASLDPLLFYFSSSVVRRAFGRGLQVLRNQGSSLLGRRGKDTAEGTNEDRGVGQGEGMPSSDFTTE
Protocol: as §1, §2, §3

HCA2/GPR109A = biological target: T3, HCA2/GPR109A (Homo sapiens, UniProt Q8TDS4); assay: forskolin-stimulated cAMP accumulation assay, Flp-In-293 cells stably expressing HCA2/GPR109A; type: cell-based; details: for activity towards HCA2/GPR109A (in words): cAMP assay; for inhibition at 50 µM: 50 µM compound, NA = not active up to 50 µM
T3 construct: expressed in transfected cells; host or cells: Flp-In-293
T3 sequence (Q8TDS4 whole entry): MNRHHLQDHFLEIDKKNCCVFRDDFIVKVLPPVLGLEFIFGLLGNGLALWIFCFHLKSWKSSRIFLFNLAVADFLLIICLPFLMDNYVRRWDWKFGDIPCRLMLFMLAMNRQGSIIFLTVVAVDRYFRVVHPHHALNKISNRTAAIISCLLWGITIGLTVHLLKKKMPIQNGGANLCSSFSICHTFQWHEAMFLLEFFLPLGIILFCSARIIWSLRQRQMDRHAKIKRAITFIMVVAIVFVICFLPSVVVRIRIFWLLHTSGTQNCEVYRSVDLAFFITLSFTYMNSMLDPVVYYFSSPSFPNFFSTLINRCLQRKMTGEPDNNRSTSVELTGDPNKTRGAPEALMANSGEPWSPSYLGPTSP
Protocol: as §1
Flp-In-293 cells stably expressing human HCA2/GPR109A receptor (laboratory collection) were grown in DMEM medium supplemented with 10% FBS, penicillin, streptomycin, and hygromycin B (100 µg/mL). All cells were cultured at 37 °C in a humidified incubator containing 5% CO2.
as §3

[1] = cyclic voltammetry, electrooxidation potential; type: physicochemical; details: vs. Ag/Ag+; acetonitrile, glassy carbon electrode
Protocol: Cyclic voltammetry experiments were carried out using a PARSTAT 2273 electrochemical system. A stationary glassy carbon disk electrode (d = 0.8 mm) served as the working electrode, while the counter electrode was a Pt wire. The oxidation potentials were measured relative to an Ag/Ag^+ reference electrode. Acetonitrile was dried over P2O5 and distilled; the distillate was stored over CaH2 and redistilled immediately prior to use. Recrystallized tetrabutylammonium tetrafluoroborate (TBATFB) was used as a supporting electrolyte at 0.1 M concentration.

[2] = HCA2, mean ± SD, read-out: HCA2/GPR109A Emax, maximal inhibition of forskolin-stimulated cAMP (converted)
[3] = inhibition of forskolin-stimulated cAMP, mean ± SD, read-out: HCA2/GPR109A EC50

Row | SMILES | inhibition at 50 µM (FFA3/GPR41) [%] | Emax (FFA3/GPR41) [%] | EC50 (FFA3/GPR41) [µM] | inhibition at 50 µM (FFA2/GPR43) [%] | Emax (HCA2/GPR109A; [2]) [%] | EC50 (HCA2/GPR109A; [3]) [µM] | also measured
1 | CC1=C(C(=O)Nc2ccc(Cl)cc2)C(c2cccs2)C2=C(CCCC2=O)N1 (centres unmarked) [1-5, N-(4-Chlorophenyl)-2-methyl-5-oxo-4-(thiophen-2-yl)-1,4,5,6,7,8-hexahydroquinoline-3-carboxamide] | 45 ± 9 | – | – | – | – | – | –
2 | CC1=C(C(=O)Nc2ccc(Cl)cc2Cl)C(c2cccs2)C2=C(CCCC2=O)N1 (centres unmarked) [1-6, N-(2,4-Dichlorophenyl)-2-methyl-5-oxo-4-(thiophen-2-yl)-1,4,5,6,7,8-hexahydroquinoline-3-carboxamide] | – | 82 | 1.4 ± 0.17 | – | – | – | –
3 | CC1=C(C(=O)Nc2ccccn2)C(c2cccs2)C2=C(CCCC2=O)N1 (centres unmarked) [1-7, 2-Methyl-5-oxo-N-(pyridin-2-yl)-4-(thiophen-2-yl)-1,4,5,6,7,8-hexahydroquinoline-3-carboxamide] | – | – | – | 49 ± 8 | – | – | activity towards FFA3/GPR41 (in words) (FFA3/GPR41): lost; activity towards FFA2/GPR43 (in words) (FFA2/GPR43): showed activity
4 | CC1=C(C(=O)N2CCOCC2)C(c2cccs2)C2=C(CCCC2=O)N1 (centres unmarked) [1-8, 2-Methyl-3-(morpholine-4-carbonyl)-4-(thiophen-2-yl)-4,6,7,8-tetrahydro-1H-quinolin-5-one] | 28 ± 2 | – | – | – | – | – | activity towards HCA2/GPR109A (in words) (HCA2/GPR109A): lacked activity; activity towards FFA2/GPR43 (in words) (FFA2/GPR43): lacked activity
5 | CCOC(=O)COC(=O)C1=C(C)NC2=C(C(=O)CCC2)C1c1cccs1 (centres unmarked) [1-9] | – | 91 | 1.9 ± 0.4 | 40 ± 2 | – | – | El.ox. pot. (first, lower potential) [1]: 1.18 V
6 | CCOC(=O)C(OC(=O)C1=C(C)NC2=C(C(=O)CCC2)C1c1cccs1)c1ccccc1 (centres unmarked) [1-10, (2-Ethoxy-2-oxo-1-phenylethyl)2-methyl-5-oxo-4-(2-thienyl)-4,6,7,8-tetrahydro-1H-quinoline-3-carboxylate] | 49 ± 15 | – | – | 31 ± 4 | – | – | El.ox. pot. (first, lower potential) [1]: 1.18 V; inhibition at 50 µM (HCA2/GPR109A; HCA2): 60 ± 5%
7 | CCCNCC1=C(C(=O)OCC)C(c2ccc(-c3ccccc3)cc2)C2=C(CC(C)(C)CC2=O)N1 (centres unmarked) [1-11] | 51 ± 6 | – | – | 55 ± 6 | – | – | inhibition at 50 µM (HCA2/GPR109A; HCA2): 52 ± 5%
8 | CCN1CC2=C(C1=O)C(c1ccc(-c3ccccc3)cc1)C1=C(CC(C)(C)CC1=O)N2 (centres unmarked) [1-12] | 16 ± 8 | – | – | 21 ± 4 | – | – | activity towards FFA3/GPR41 (in words) (FFA3/GPR41): low activity; inhibition at 50 µM (HCA2/GPR109A; HCA2): 16 ± 4%; activity towards HCA2/GPR109A (in words) (HCA2/GPR109A): low activity; activity towards FFA2/GPR43 (in words) (FFA2/GPR43): low activity
9 | CC(=O)OCCN1C2=C(C(=O)CC(C)(C)C2)C(c2ccccc2)C2=C1CC(C)(C)CC2=O [1-13] | 30 ± 9 | – | – | 32 ± 7 | – | – | inhibition at 50 µM (HCA2/GPR109A; HCA2): 26 ± 8%
10 | CCOC(=O)C1=C(C(=O)O)NC2=C(C(=O)CC(C)(C)C2)C1c1ccc(-c2ccccc2)cc1 (centres unmarked) [1-14] | – | – | – | – | – | – | activity towards FFA3/GPR41 (in words) (FFA3/GPR41): completely lacked activity; activity towards HCA2/GPR109A (in words) (HCA2/GPR109A): completely lacked activity; activity towards FFA2/GPR43 (in words) (FFA2/GPR43): completely lacked activity
11 | CCc1cc(=O)oc2[nH]c(=S)[nH]c(=O)c12 [2-2] | – | – | 0.37 ± 0.08 | – | – | – | EC50 (HCA2/GPR109A): 0.49 ± 0.06 µM; Emax (HCA2/GPR109A; HCA2, read-out: HCA2/GPR109A Emax, maximal inhibition of forskolin-stimulated cAMP): 99%; Emax (FFA2/GPR43): 91%; EC50 (FFA2/GPR43): 0.92 ± 0.04 µM

More lines, main results first:

Row | inhibition at 50 µM (FFA3/GPR41) [%] | Emax (FFA3/GPR41) [%] | EC50 (FFA3/GPR41) [µM] | inhibition at 50 µM (FFA2/GPR43) [%] | Emax (HCA2/GPR109A; [2]) [%] | EC50 (HCA2/GPR109A; [3]) [µM] | SMILES | also measured
12 | – | 89 | 4.8 ± 0.36 | – | 96 | 7.1 ± 1.31 | Cc1cc(=O)oc2[nH]c(=S)[nH]c(=O)c12 [2-1] | Emax (FFA2/GPR43): 87%; EC50 (FFA2/GPR43): 19 ± 6.8 µM
13 | 38 ± 2 | – | – | 29 ± 3 | 86 | 0.87 ± 0.11 | CCCc1cc(=O)oc2[nH]c(=S)[nH]c(=O)c12 [2-3, 5-Propyl-2-thioxo-2,3-dihydro-1H-pyrano[2,3-d]pyrimidine-4,7-dionee] | –
14 | – | 95 | 0.19 ± 0.03 | – | 97 | 0.55 ± 0.04 | CCCCc1cc(=O)oc2[nH]c(=S)[nH]c(=O)c12 [2-4, 5-Butyl-2-thioxo-2,3-dihydro-1H-pyrano[2,3-d]pyrimidine-4,7-dione] | Emax (FFA2/GPR43): 93%; EC50 (FFA2/GPR43): 0.74 ± 0.08 µM
15 | 28 ± 4 | – | – | – | 93 | 0.051 ± 0.007 | CCCCc1cc(=O)oc2[nH]c(=O)[nH]c(=O)c12 [2-5] | El.ox. pot. (single value) [1]: 1.94 V
16 | – | 89 | 0.34 ± 0.05 | – | 94 | 0.35 ± 0.02 | O=c1cc(CCCCCl)c2c(=O)[nH]c(=S)[nH]c2o1 [2-6, 5-(4-Chlorobutyl)-2-thioxo-2,3-dihydro-1H-pyrano[2,3-d]pyrimidine-4,7-dione] | Emax (FFA2/GPR43): 83%; EC50 (FFA2/GPR43): 2.5 ± 0.4 µM
17 | – | 95 | 1.6 ± 0.5 | 65 ± 1 | 93 | 75 ± 11 | CCCCc1cc(=O)oc2[nH]c(SCC(=O)OCC)nc(=O)c12 [3-1, Ethyl 5-butyl-4,7-dioxo-1,7-dihydro-4H-(pyrano[2,3-d]pyrimidin-2-ylsulfanyl)acetate] | El.ox. pot. (single value) [1]: 1.97 V
18 | – | 91 | 1.7 ± 0.2 | 64 ± 2 | 89 | 43 ± 8 | CCOC(=O)CSc1nc(=O)c2c(CCCCCl)cc(=O)oc2[nH]1 [3-2] | –
19 | 20 ± 4 | – | – | 42 ± 2 | 87 | 62 ± 10 | NC(=O)CSc1nc(=O)c2c(CCCCCl)cc(=O)oc2[nH]1 [3-5, 2-[5-(4-Chlorobutyl)-4,7-dioxo-1,7-dihydro-4H-pyrano[2,3-d]pyrimidin-2-ylsulfanyl]-acetamide] | El.ox. pot. (single value) [1]: 1.93 V
20 | – | 87 | 4.6 ± 0.6 | 52 ± 10 | – | – | O=C(CSc1nc(=O)c2c(CCCCCl)cc(=O)oc2[nH]1)Nc1ccccc1C(=O)O [3-7, 2-2-[5-(4-Chlorobutyl)-4,7-dioxo-1,7-dihydro-4H-pyrano[2,3-d]pyrimidin-2-ylsulfanyl]-acetamino-benzoic acid] | inhibition at 50 µM (HCA2/GPR109A; HCA2): 30 ± 6%
